Values joined by “and” are separate entries in the source; they are usually repeats but may differ in a detail not shown here. Equal values may be shown once. Read-outs that look alike come from different tables or passages of the source.
Tests used:
[1] = target: T1, NHE1 (Homo sapiens, UniProt P19634); experiment: Plate-based NHE1 inhibition assay (BCECF pHi recovery, 96-well plate reader); assay type: cell-based
T1 construct: endogenous in cells; host or cells: MDA-MB-231
Description: To perform NHE1 screening with increased throughput, we adapted the conventional cuvette-based NHE1 activity assay to a simple new 96-well plate format using MDA-MB-231 cells that were compatible with common laboratory fluorescence plate readers (see Section 4 for details).
Culture media were removed and replaced with 200 µL 0.2% FBS-containing media with incubation for 3–4 h to stimulate NHE1 activity, followed by incubation for 30 min in the presence of 5 µM 2′,7′-bis(carboxyethyl)-5(6)-carboxyfluorescein-acetoxymethyl ester (BCECF-AM, cat #ab143463, Abcam, Cambridge, United Kingdom). Cells were then washed with 100 µL/well Na^+-free acid-load buffer: 10 mM NH4Cl, 1.8 mM CaCl2, 90 mM N-methyl-D-glucamine (from 1 M stock titrated to pH 7.4 with HCl), 5 mM glucose, 15 mM HEPES, 5 mM KCl, 1 mM MgCl2 (pH 7.5, adjusted with KOH), and incubated at 37 °C for a further 30 min. Acid-load buffer was removed and replaced with Na^+-containing assay buffer: 100 mM NaCl, 1.8 mM CaCl2, 5 mM glucose, 15 mM HEPES, 5 mM KCl, 1 mM MgCl2 containing serial dilution of each compound or DMSO vehicle, and changes in fluorescence were read immediately using a BMG Labtech POLARstar OMEGA (BMG Labtech GmbH, Offenburg, Germany) plate reader according to the parameters in Table S1. Compounds were tested at n = 3 technical replicates per concentration per plate. BCECF-AM-free cells were treated with matched concentrations of each compound to correct for intrinsic fluorescence. DMSO was present in all wells at a final concentration of 1% v/v. Inhibition of NHE1-mediated pHi recovery was determined by ratiometric calculation of the change in blank-corrected pH-sensitive fluorescence divided by the isobestic fluorescence for each well over time. […] (0% activity) controls present on each plate. IC50 values were determined through fitting of Log-10 transformed data using the “log(inhibitor) versus normalised response–variable slope” non-linear function in GraphPad PRISM v8.0 software package (GraphPad Software, San Diego, CA, USA).

[2] = Cell viability (cytotoxicity) assay; assay type: cell-based; details: human, MDA-MB-231 cells, 48 h treatment
Description: On the day of treatment, respective compounds were serially diluted using a semi-logarithmic dilution series from 20 mM stocks in neat DMSO into DMEM-high glucose media (10% v/v FBS) in a separate 96-well plate and under sterile conditions. Thereafter, 10 μL of the diluted compounds at their respective concentrations (n = 4) were added to the cells. […] Vehicle media blanks or drug blanks were also included to correct for inherent colour of the compounds and phenol red-containing media. Following 48 h treatment, 20 μL CellTitre 96® Aqueous One Solution Cell Proliferation Assay (Promega, Madison, USA) was added to each well, plates were incubated for 2 h, and absorbance was measured at 490 nm using a SpectraMax Plus 384-well plate reader (Molecular Devices LLC, San Jose, USA) and Softmax PRO v7.0 software. Blank-corrected data were analysed and graphed using GraphPad PRISM v8.0 software (GraphPad Software, San Diego, CA USA).

[3] = test system: NHE1; details: read-out: NHE1 IC50 (literature); cited from earlier work
[4] = target: T2, urokinase from human kidney cells (human uPA) (Homo sapiens, UniProt P00749); experiment: uPA inhibition assay (fluorescence-based, purified enzyme); assay type: biochemical; details: for uPA selectivity ratio: uPA over NHE1
T2 construct: low molecular weight active human uPA; purchased Sigma-Aldrich U4010; host or cells: human kidney cells

[5] = target: T1, NHE1; experiment: Cuvette-based NHE1 inhibition assay; assay type: cell-based
Description: Performed as described in [53]. Briefly, MDA-MB-231 cells were grown to ~80–90% confluence on glass coverslips. Then, 3 µM BCECF were loaded into cells in 400 µL serum-free medium and the fluorescence was measured using a PTI Deltascan spectrofluorometer (Horiba Ltd., Kyoto, Japan). […] A calibration curve of pHi fluorescence was performed for every sample using nigericin [55]. […] IC50 values were determined through fitting of Log-10 transformed data using the “log(inhibitor) versus normalised response–variable slope” non-linear function in GraphPad PRISM v8.0 software package (GraphPad Software, San Diego, USA).

[6] = target: T3, MDA-MB-231 cell-surface uPA (HMW human active uPA bound to uPAR) (Homo sapiens, UniProt P00749); experiment: Cell-surface uPA activity assay; assay type: cell-based; details: average ± SEM from four independent assays
T3 construct: pre-incubated with active high molecular weight (HMW) uPA; purchased Molecular Innovations HTC-UPA; host or cells: added to MDA-MB-231 cells (endogenous uPAR)
Description: Having identified non-cytotoxic compounds with the desired target selectivity profiles, we then sought to confirm their uPA inhibitory activities in a more physiologically relevant, whole-cell assay. To this end, the fluorogenic biochemical assay was modified to allow measurement of cell-surface uPA activity in MDA-MB-231 cells, which are known to express uPAR [38, 39]. To maximise enzymatic activity, the cells were pre-incubated with active high molecular weight (HMW) uPA to saturate unoccupied uPAR present at the cell surface.
MDA-MB-231 cells were seeded into Greiner CELLSTAR black 96-well plates (Greiner Bio-one, cat #655079) at density 10,000 cells/well in a volume of 100 µL media and cultured for 48 h. On the day of the experiment, cell culture media were removed via shakeout, followed by washing with 100 µL 1 × Dulbecco’s PBS/1 mM CaCl2/1 mM MgCl2/0.1% protease-free bovine serum albumin/pH 7.4 wash buffer. Cells were then incubated in the presence of 25 nM HMW human active uPA (Molecular Innovations, San Diego, CA, USA, SKU: HTC-UPA) in wash buffer for 30 min at RT. Unbound HMW uPA was removed via washing twice with 100 µL wash buffer. […] Plates were read immediately following the addition of substrate using a POLARstar OMEGA fluorescence plate reader (BMG Labtech GmbH, Offenburg, Germany) according to the parameters in Table S1.

[7] = test system: ENaC; details: previously showed; cited from earlier work
[8] = previously showed; cited from earlier work
[9] = test system: orthotopic xenograft model of pancreatic ductal adenocaricinoma; details: pancreatic ductal adenocarcinoma; cited from earlier work
[10] = 1 μM, MDA-MB-231 cells, plate reader
[11] = MDA-MB-231 cells, plate-reader assay, read-out: NHE1 Plate reader IC50
[12] = purified enzyme, Z-Gly-Gly-Arg-AMC substrate, number in parentheses after value, read-out: uPA IC50
[13] = plate-reader value as printed in nM in text, read-out: NHE1 IC50
[14] = MDA-MB-231 cells, cuvette assay, read-out: NHE1 Cuvette IC50

T1 sequence (P19634 whole entry): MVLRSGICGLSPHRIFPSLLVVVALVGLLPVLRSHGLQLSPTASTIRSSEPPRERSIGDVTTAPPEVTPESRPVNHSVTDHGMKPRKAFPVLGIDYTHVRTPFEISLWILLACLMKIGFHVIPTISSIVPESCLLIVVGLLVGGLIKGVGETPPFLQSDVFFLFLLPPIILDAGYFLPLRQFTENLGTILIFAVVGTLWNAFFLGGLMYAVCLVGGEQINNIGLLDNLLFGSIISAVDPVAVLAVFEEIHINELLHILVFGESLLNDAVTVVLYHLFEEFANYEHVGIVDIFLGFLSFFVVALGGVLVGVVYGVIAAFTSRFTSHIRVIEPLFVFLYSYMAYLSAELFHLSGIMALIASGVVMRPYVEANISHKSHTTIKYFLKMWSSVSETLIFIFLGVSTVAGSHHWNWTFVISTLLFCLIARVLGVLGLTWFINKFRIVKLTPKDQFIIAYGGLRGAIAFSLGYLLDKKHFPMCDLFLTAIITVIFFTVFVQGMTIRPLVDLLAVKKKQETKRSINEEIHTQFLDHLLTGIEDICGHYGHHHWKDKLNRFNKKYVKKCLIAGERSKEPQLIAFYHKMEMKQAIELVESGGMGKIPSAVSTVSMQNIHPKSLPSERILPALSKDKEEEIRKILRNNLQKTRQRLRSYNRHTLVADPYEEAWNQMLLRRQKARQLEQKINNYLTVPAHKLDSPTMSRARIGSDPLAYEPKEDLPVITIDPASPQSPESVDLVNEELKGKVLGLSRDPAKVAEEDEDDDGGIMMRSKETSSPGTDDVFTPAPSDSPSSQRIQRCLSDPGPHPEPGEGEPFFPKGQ

Structure (SMILES) | inhibition at 1 µM [1, 10] [%] | inhibition at 10 µM ([1]; MDA-MB-231 cells, plate reader) [%] | IC50 at 48 h [2] [nM] | IC50 [4, 12] | IC50 [1, 13] | IC50 [5, 14] [nM] | also measured
N=C(N)NC(=O)c1nc(Cl)c(N)nc1N [AML, Amiloride, reference compound] | 7 | 64 | > 100000 |  |  |  | IC50 [3]: […]
CC(=O)N1CCC(c2ccc(C(=O)NC(=N)N)cc2C(F)(F)F)CC1 [BI-9627, reference compound] |  |  |  |  |  |  | IC50 ([4]; human uPA, fluorometric method, Figure S1, read-out: uPA IC50 (not reached at the highest concentration tested)): > 50000 nM; IC50 ([1]; Figure S1 representative curve, n = 3 technical replicates, read-out: NHE1 IC50 of curve shown, plate reader assay): 1.4 nM; IC50 [1, 11]: 3 ± 0.8 nM; IC50 ([5]; Figure S1, n = 6 technical replicates/concentration, read-out: NHE1 IC50, cuvette assay): 7.5 nM; IC50 [3]: 6 nM
COc1ncc(-c2nc(C(=O)NC(=N)N)c(N)nc2N2CCCCCC2)cn1 [compound 26] | 0 | 72 | > 100000 | 86 nM | 12300 nM | 21500 | uPA selectivity ratio [4]: 143; NHE1 Inhibition (%) 1 μM [1, 10]: no activity; drop in NHE1 potency relative to unsubstituted 24 ([1]; IC50 measurements): ~ 46 fold; IC50 [6]: 149 ± 14 nM; ENaC activity in vitro [7]: no ENaC activity; K+-sparing or diuretic effects in vivo [8]: no K^+-sparing or diuretic effects; anti-metastatic properties [9]: anti-metastatic properties
N=C(N)NC(=O)c1nc(Cl)c(N2CCOCC2)nc1N [compound 29] | 85 | 100 | > 100000 | 10900 nM | 129 nM | 166 | NHE1 selectivity ratio (selectivity over uPA) [1]: 85 fold
N=C(N)NC(=O)c1nc(-c2cc3cc(F)cc(F)c3o2)c(N2CCCCCC2)nc1N [compound 17] | 0 | 90 | 8800 | 380 ± 10 nM |  |  | 
N=C(N)NC(=O)c1nc(-c2cc3ncccc3o2)c(N)nc1N [compound 20] | 0 | 31 | > 100000 | 453 nM |  |  | 
N=C(N)NC(=O)c1nc(-c2cncnc2)c(N2CCCCCC2)nc1N [compound 24] | 80 | 96 | > 100000 | 175 nM and < 300 nM | 266 nM and < 300 nM | 397 | uPA selectivity ratio [4]: 1.5; IC50 [6]: 130 ± 10 nM; ENaC activity in vitro [7]: no ENaC activity; K+-sparing or diuretic effects in vivo [8]: no K^+-sparing or diuretic effects
N=C(N)NC(=O)c1nc(-c2ccc(C(F)(F)F)cc2)c(N2CCCC2)nc1N [compound 39] | 95 | 100 | 23900 | 6190 nM |  | 441 | IC50 [1, 11]: 605 ± 134 nM
N=C(N)NC(=O)c1nc(Cl)c(N2CCCOCC2)nc1N [compound 30] | 91 | 100 | 95600 | 5720 nM | 85 nM | 93 | NHE1 selectivity ratio (selectivity over uPA) [1]: 67 fold
N=C(N)NC(=O)c1nc(-c2cc3ccccc3o2)c(NC2CCCCCC2)nc1N [compound 35] | 0 | 0 | 26200 | 30200 nM |  |  | 
N=C(N)NC(=O)c1nc(-c2cc3cc(F)cc(F)c3o2)c(N)nc1N [compound 16] | 7 | 52 | 4700 | 609 ± 26 nM |  |  | 
N=C(N)NC(=O)c1nc(-c2cc3cc(Cl)ccc3o2)c(N2CCCCCC2)nc1N [compound 11] | 0 | 0 | 26400 |  |  |  | inhibition at 2.5 µM ([4]; @ 2,500 nM, read-out: uPA inhibition at single concentration (printed in uPA IC50 column)): 49%
N=C(N)NC(=O)c1nc(-c2cc3ccccc3o2)c(N2CCCCC2)nc1N [compound 32] | 69 | 100 | 16200 | 1880 nM |  |  | 

— PMC8000185 (International Journal of Molecular Sciences, 2021)
